# How the values were obtained:
# [1] = tested on: glucarate biosensor cdaR in BL21 cells; assay: Real-time glucarate monitoring from pathway intermediates with cdaR biosensor; type: cell-based, E. coli; settings: strain with biosensor and biosynthesis pathway
# Method: In representative examples, identical production conditions (genetics, media composition) were maintained but the exogenously supplemented precursor molecules were varied. […] The end-point fluorescence achieved by the addition of myo-inositol is just 20% that of glucuronate addition.
# Glucarate production monitoring was carried out in BL21 cells doubly transformed with pJKR-H-cdaR and pJKR-GA-EXP. BL21 transformed with pJKR-H-cdaR alone was used as a control. Overnight cultures back-diluted 1:100 into Davis media supplemented with 5 g/L glucose. After four hours incubating at 200 RPM and 37° C., 150 μl of the log-phase cells were transferred to 96-well plates and exposed to 1 mM IPTG with the pathway intermediates described. […] End-point measurements were taken after eight hours. Glucarate production for titer measurement was carried out in BL21 transformed with pJKR-GA-EXP. An overnight culture was inoculated 1:100 into 1 mL of LB supplemented with 1 mM IPTG and the specified concentration of pathway intermediate. Production took place in 96-well blocks at 900 RPM and 37° C. for eight hours before supernatants were isolated and 0.2 μm filtered for LC/MS. All production runs were setup in triplicate. Error bars represent the 95% confidence interval derived from the standard error of the mean.
# [2] = target: T1, TetR, regulator sequence SEQ ID NO: 13 (Escherichia coli, UniProt P04483); assay: cell-based; type: cell-based; settings: anhydrotetracycline; for Fold Induction: 15 h; for EC50: lumped half-maximal parameter from Hill fit
# T1 construct: expressed in transfected cells; host or cells: E. coli DH5alpha transformed with pJKR-H (high copy) or pJKR-L (low copy) plasmid
# From the text: Plasmids were constructed using Gibson isothermal assembly methods (see Gibson, D. G., Young, L., Chuang, R. Y., Venter, J. C., Hutchison, C. A., 3rd and Smith, H. O. (2009) Enzymatic assembly of DNA molecules up to several hundred kilobases. Nat Methods, 6, 343-345 incorporated herein by reference in its entirety) and transformed into DH5α electrocompetent cells (New England Biolabs, Ipswich Mass.). All standard induction plasmids contained the rrnB strong terminator (see Orosz, A., Boros, I. and Venetianer, P. (1991) Analysis of the complex transcription termination region of the Escherichia coli rrnB gene. European journal of biochemistry/FEBS, 201, 653-659 incorporated herein by reference in its entirety) followed by the inducible promoter and the strong g10 RBS (see Olins, P. O., Devine, C. S., Rangwala, S. H. and Kavka, K. S. (1988) The T7 phage gene 10 leader RNA, a ribosome-binding site that dramatically enhances the expression of foreign genes in Escherichia coli. Gene, 73, 227-235 incorporated herein by reference in its entirety) ‘[…],’ (SEQ ID NO:1) driving the expression of sfGFP (see Pedelacq, J. D., Cabantous, S., Tran, T., Terwilliger, T. C. and Waldo, G. S. (2006) Engineering and characterization of a superfolder green fluorescent protein. […] GFP was followed by a transcriptional terminator prefixing the proB promoter (see Davis, J. H., Rubin, A. J. and Sauer, R. T. (2011) Design, construction and characterization of a set of insulated bacterial promoters. Nucleic acids research, 39, 1131-1141 incorporated herein by reference in its entirety) and strong RBS ‘[…],’ (SEQ ID NO:2) which facilitated expression of the transcriptional regulator. Each inducible system was implemented on high and low copy plasmids. High copy pJKR-H plasmids were constructed with the pUC origin and beta lactamase antibiotic resistance marker derived from pUC19 (New England Biolabs, Ipswich Mass.). Low copy pJKR-L plasmids were constructed in the same way, except that the pUC origin was replaced by the SC101 origin (including repA) from pSC101 obtained from American Type Culture Collection (ATCC #37032). […] The plasmids MphR-p15a-SPEC-mCherry and AcuR-colA-KAN-CFP were designed for compatible maintenance with pJKR-H-CdaR. In both these plasmids the antibiotic resistance gene and origin of replication were replaced with p15a-aadA and colA-kanR. Each enzyme was cloned downstream of the constitutive promoter P2 (see Mutalik, V. K., Guimaraes, J. C., Cambray, G., Lam, C., Christoffersen, M. J., Mai, Q. A., Tran, A. B., Paull, M., Keasling, J. D., Arkin, A. P. et al. (2013) Precise and reliable gene expression via standard transcription and translation initiation elements. Nat Methods, 10, 354-360 hereby incorporated by reference in its entirety) and g10 RBS to create pJKR-MIOX variants. These expression plasmids used the colA origin of replication and kanamycin resistance gene for maintenance. Sequences and plasmids are available on Addgene (plasmid numbers 62557-62570).
# DH5α cells transformed with pJKR plasmids and maintained with carbenicillin were used in the induction assays. For each induction evaluation experiment, the cells were grown overnight to saturation before being diluted 1:100 into fresh LB media and incubated at 200 RPM and 37° C. After four hours, 150 μl of the log-phase cells were transferred to 96-well plates and stock inducer was added to achieve the desired range of induction concentrations. Three separate wells were inoculated and independently supplemented with the appropriate amount of inducing chemical for each level of induction. Measurements were made on the same Biotek (Winooksi, Vt.) HT plate reader using the same settings: excitation 485/20, emission 528/20, 37° C. and fast shaking. Fluorescence and absorbance were measured every 10 minutes for 15 hours. Fluorescence was measured in arbitrary units (AFU) while optical density was determined by absorbance (OD). […]
# [3] = target: T2, AraC, regulator sequence SEQ ID NO: 10 (Escherichia coli, UniProt P0A9E0); assay: AraC biosensor induction (sfGFP reporter, Hill fit); type: cell-based, E. coli; settings: arabinose
# T2 construct: expressed in transfected cells; host or cells: E. coli DH5alpha transformed with pJKR-H (high copy) or pJKR-L (low copy) plasmid
# From the text: (§1) Plasmids were constructed using Gibson isothermal assembly methods (see Gibson, D. G., Young, L., Chuang, R. Y., Venter, J. C., Hutchison, C. A., 3rd and Smith, H. O. (2009) Enzymatic assembly of DNA molecules up to several hundred kilobases. Nat Methods, 6, 343-345 incorporated herein by reference in its entirety) and transformed into DH5α electrocompetent cells (New England Biolabs, Ipswich Mass.). […] Each inducible system was implemented on high and low copy plasmids. High copy pJKR-H plasmids were constructed with the pUC origin and beta lactamase antibiotic resistance marker derived from pUC19 (New England Biolabs, Ipswich Mass.). Low copy pJKR-L plasmids were constructed in the same way, except that the pUC origin was replaced by the SC101 origin (including repA) from pSC101 obtained from American Type Culture Collection (ATCC #37032). […] In both these plasmids the antibiotic resistance gene and origin of replication were replaced with p15a-aadA and colA-kanR. Each enzyme was cloned downstream of the constitutive promoter P2 (see Mutalik, V. K., Guimaraes, J. C., Cambray, G., Lam, C., Christoffersen, M. J., Mai, Q. A., Tran, A. B., Paull, M., Keasling, J. D., Arkin, A. P. et al. (2013) Precise and reliable gene expression via standard transcription and translation initiation elements. Nat Methods, 10, 354-360 hereby incorporated by reference in its entirety) and g10 RBS to create pJKR-MIOX variants. These expression plasmids used the colA origin of replication and kanamycin resistance gene for maintenance. Sequences and plasmids are available on Addgene (plasmid numbers 62557-62570).
# (§2) DH5α cells transformed with pJKR plasmids and maintained with carbenicillin were used in the induction assays. For each induction evaluation experiment, the cells were grown overnight to saturation before being diluted 1:100 into fresh LB media and incubated at 200 RPM and 37° C. […] Measurements were made on the same Biotek (Winooksi, Vt.) HT plate reader using the same settings: excitation 485/20, emission 528/20, 37° C. and fast shaking. Fluorescence and absorbance were measured every 10 minutes for 15 hours. Fluorescence was measured in arbitrary units (AFU) while optical density was determined by absorbance (OD). Normalized fluorescence was determined by dividing fluorescence by optical density for a given measurement. […]
# (§3) The ratio of fluorescence to absorbance at 600 nm was used in order to compensate for changes in cell density over time and between experiments (AFU/OD). […] This transfer function is plotted on a log-log scale in FIG. 1A and FIG. 1B to capture the wide range of inducer concentrations and resulting fluorescence values. […]
# [4] = target: MphR (E. coli), regulator sequence SEQ ID NO: 12 (Escherichia coli, UniProt Q9EVJ6); assay: MphR biosensor induction (sfGFP reporter, Hill fit); type: cell-based; settings: erythromycin
# From the text: as §1, §2, §3
# E. coli DH5α cells = assay: Toxicity of inducer chemicals (growth)
# Method: (§4) Growth rate was measured for each combination of chemical and concentration during the exponential phase of growth. Rates were normalized to the growth rate of cells without any added chemical and plotted as bar height. Concentration of each inducer is indicated in the table, corresponding to the bar chart by order and color. […] Inducer concentrations mirror the concentrations used in the induction experiments.
# (§5) 150 μl of cells were transferred into 96-well plates and the assayed chemical was immediately added in triplicate before further incubation at 600 RPM and 37° C.
# (§6) Toxicity of the inducer chemicals was measured to help guide the choice of inducer concentration for biosensor applications. In applications where maximum protein production is the goal, toxicity will be less of a consideration. In contrast, sub-toxic induction is important for complex circuits that require the cell to maintain a healthy cell state.
# [5] = target: T3, TtgR (Pseudomonas putida), regulator sequence SEQ ID NO: 14 (Pseudomonas putida, UniProt Q9AIU0); assay: TtgR biosensor induction (sfGFP reporter, Hill fit); type: cell-based; settings: naringenin
# T3 construct: expressed in transfected cells; host or cells: E. coli DH5alpha transformed with pJKR-H (high copy) or pJKR-L (low copy) plasmid
# From the text: as §1, §2, §3
# DH5α cells = assay: Toxicity of inducer chemicals and solvents (growth); settings: for effect on growth: arabinose high concentrations, glucarate highest concentration, ethanol low levels; for concentration at which toxicity was observed: E. coli without resistance gene
# Method: as §4, §5, §6
# TtgR biosensor = TtgR biosensor induction with phenol and related compounds; type: cell-based, E. coli; settings: 0.1% phenol, 0.1% catechol, up to 0.4% benzene; fluorescence after 90 minutes
# Method: All experiments were carried out in triplicate.
# DH5α cells transformed with pJKR plasmids and maintained with carbenicillin were used in the induction assays. For each induction evaluation experiment, the cells were grown overnight to saturation before being diluted 1:100 into fresh LB media and incubated at 200 RPM and 37° C. After four hours, 150 μl of the log-phase cells were transferred to 96-well plates and stock inducer was added to achieve the desired range of induction concentrations. Three separate wells were inoculated and independently supplemented with the appropriate amount of inducing chemical for each level of induction. Measurements were made on the same Biotek (Winooksi, Vt.) HT plate reader using the same settings: excitation 485/20, emission 528/20, 37° C. and fast shaking. Fluorescence and absorbance were measured every 10 minutes for 15 hours. Fluorescence was measured in arbitrary units (AFU) while optical density was determined by absorbance (OD). Normalized fluorescence was determined by dividing fluorescence by optical density for a given measurement. Five independent wells containing control strains, transformed with pUC19, were included to provide a measurement of background autofluorescence.
smiles,measurement,setting,value
O=C(O)[C@H]1OC(O)[C@H](O)[C@@H](O)[C@@H]1O (mixture of isomers) [glucuronate],end-point fluorescence relative to that of glucarate,[1]; eight hours,80%
"Cc1c2c(c(O)c3c(O)cccc13)C(=O)[C@]1(O)C(=O)C(C(N)=O)=C(O)[C@@H](N(C)C)[C@@H]1C2 [Anhydrotetracycline, anhydrotetracycline]",Hill Coefficient,[2]; high copy,4.2 ± 0.1
same,Max Expression Velocity,[2]; high copy,1760 ± 10 s⁻¹
same,Fold Induction,[2]; high copy,63 ± 3 fold
same,EC50,[2]; high copy,81 ± 1 nM
same,Hill Coefficient,[2]; low copy,3.1 ± 0.3
same,Max Expression Velocity,[2]; low copy,116 ± 2 s⁻¹
same,Fold Induction,[2]; low copy,>50 fold
same,EC50,[2]; low copy,54 ± 2 nM
"OC1OC[C@H](O)[C@H](O)[C@H]1O (stereo partly shown) [Arabinose, arabinose]",Hill Coefficient,[3]; high copy,1.3 ± 0.1
same,Max Expression Velocity,[3]; high copy,3150 ± 60 s⁻¹
same,Hill Coefficient,[3]; low copy,1.3 ± 0.2
same,Max Expression Velocity,[3]; low copy,1260 ± 50 s⁻¹
"CC[C@H]1OC(=O)[C@H](C)[C@@H](O[C@H]2C[C@@](C)(OC)[C@@H](O)[C@H](C)O2)[C@H](C)[C@@H](O[C@@H]2O[C@H](C)C[C@H](N(C)C)[C@H]2O)[C@](C)(O)C[C@@H](C)C(=O)[C@H](C)[C@@H](O)[C@]1(C)O [Erythromycin, erythromycin]",Hill Coefficient,[4]; high copy,1.6 ± 0
same,Max Expression Velocity,[4]; high copy,2070 ± 20 s⁻¹
same,Hill Coefficient,[4]; low copy,1.6 ± 0.1
same,Max Expression Velocity,[4]; low copy,66 ± 1 s⁻¹
same,Toxicity in induction experiment,"E. coli DH5α cells; 1400 μM and 450 μM erythromycin, low-copy MphR",high toxicity
same,Toxicity,"E. coli DH5α cells; with eryR, erythromycin up to 1.4 mM",only slight toxicity
"O=C1C[C@@H](c2ccc(O)cc2)Oc2cc(O)cc(O)c21 [Naringenin, naringenin]",Hill Coefficient,[5]; high copy,3.8 ± 0.6
same,Max Expression Velocity,[5]; high copy,180 ± 6 s⁻¹
same,Hill Coefficient,[5]; low copy,2.3 ± 0.4
same,Max Expression Velocity,[5]; low copy,25 ± 1 s⁻¹
Cc1c2c(c(O)c3c(O)cccc13)C(=O)[C@]1(O)C(=O)C(C(N)=O)=C(O)[C@@H](N(C)C)[C@@H]1C2 [anhydrotetracycline],concentration at which growth defect was observed,"DH5α cells; E. coli, defect likely due to solvent ethanol",430 nM
O=C[C@@H](O)[C@H](O)[C@H](O)CO [arabinose],effect on growth,DH5α cells,higher growth rates
c1ccccc1 [benzene],fluorescent response of TtgR biosensor,TtgR biosensor,background levels of fluorescence
CC[C@H]1OC(=O)[C@H](C)[C@@H](O[C@H]2C[C@@](C)(OC)[C@@H](O)[C@H](C)O2)[C@H](C)[C@@H](O[C@@H]2O[C@H](C)C[C@H](N(C)C)[C@H]2O)[C@](C)(O)C[C@@H](C)C(=O)[C@H](C)[C@@H](O)[C@]1(C)O [erythromycin],concentration at which toxicity was observed,DH5α cells,≥ 50 µM
same,concentration up to which only slight toxicity was observed,DH5α cells; with expression of the erythromycin resistance gene (eryR),up to 1.4 mM
CCO [ethanol],effect on growth,DH5α cells,more modest growth benefits
O=C(O)[C@@H](O)[C@@H](O)[C@H](O)[C@@H](O)C(=O)O [glucarate],effect on growth,DH5α cells,more modest growth benefits
O[C@H]1[C@H](O)[C@@H](O)[C@H](O)[C@@H](O)[C@H]1O [myo-inositol],lag of fluorescence response behind glucuronate,[1],60 min
same,end-point fluorescence relative to that of glucuronate addition,[1]; eight hours,20%
O=C1C[C@@H](c2ccc(O)cc2)Oc2cc(O)cc(O)c21 [naringenin],concentration at which toxicity was observed,DH5α cells,≥ 330 µM
Oc1ccccc1 [phenol],fluorescent response of TtgR biosensor,TtgR biosensor,activated the sensor

# — patent publication US11365410B2, “Production and monitoring of metabolites in cells” (President and Fellows of Harvard College, priority 2015, dated 2022)
